The results in this text go back to patent publication US20210356472A1, “METHODS AND COMPOSITIONS FOR DETECTION AND VISUALIZATION OF OXIDATIVE STRESS-INDUCED CARBONYLATION IN CELLS” (The Research Foundation for The State University of New York, priority 2020, published 2021).

The nature of series [1]: Absorption and emission spectra of hydrazide fluorophores and their hydrazones with propanal. It is filed as physicochemical. The following applies: 10 mM PB, pH 7 containing 0.5% DMSO (v/v); for Hydrazide + propanal Abs max / Hydrazide + propanal Em max: corresponding hydrazone with propanal. As to the method: FIGS. 15A-15F show absorption (top) and emission (bottom) spectra of (FIGS. 15A, 15B) DCCH, (FIGS. 15C, 15D) BODIPYH, and (FIGS. 15E, 15F) TxRH and their corresponding hydrazones with propanal in 10 mM PB, pH 7 containing 0.5% DMSO (v/v). The excitation wavelengths used for obtaining the emission spectra are as follows: DCCH (ex: 405 nm), BODIPYH (ex: 450 nm), TxRH (543 nm). The arrow in the absorption spectra denotes the wavelength of the excitation laser used in the microscopy experiments.

Another series relates to A549 cells. As to the kind of experiment: Detection of carbonylation in live cells with hydrazide fluorophores. It is filed as cell-based. The protocol: At the end of the incubation period with the OSA or vehicle, 1 μL of 2 mM fluorophore (final concentrations: fluorophore=10 μM; DMSO=0.5%, v/v) is added to one corner of each well, taking care not to touch the bottom of the well with the pipet tip, and mixed well, by gently moving the chambered coverglass in a circular motion (clockwise as well as counter-clockwise). The coverglass is then returned to the cell culture incubator and incubated for 30-45 min. The difference in fluorescence between the control and the sample may be affected by the time of incubation with the fluorophore and the cell line. The incubation time is adjusted based on the cell line and oxidant used. The medium is discarded and 500 μL fresh medium added to each well. The coverglass is returned to the cell culture incubator for 3 min. The washing step is repeated two more times. The final wash medium is discarded, and 200 μL of fresh medium added, and the cells imaged by, e.g., confocal microscopy.
A549 cells were treated with vehicle (0.1% DMSO, v/v) or 100 μM menadione for 1 h, followed by 10 μM DCCH, BODIPYH, TxRH or TFCH for 30 min. The medium was discarded, and fresh medium was added to the cells and allowed to incubate for 5 min. After an additional round of medium change, the cells were imaged live using a confocal laser scanning microscope.
FIGS. 9A-9C show quantitative analysis of carbonyls in live cells in high throughput platform: A549 cells grown in standard media (control) or serum free media (serum starved) for ˜24 h were allowed to react with 10 μM hydrazide fluorophores for 1 h. Cells were washed and the emission of respective samples were recorded. The excitation (ex) and emission (em) wavelengths used are as follows: (FIG. 9A) DCCH (ex: 405 nm; em: 475 nm); (FIG. 9B) BODIPYH (ex: 488 nm; em: 530 nm); (FIG. 9C) TxRH (ex: 543 nm; em: 620 nm). Fluorescence in each sample was normalized to cell density. The graphs represent fluorescence of the serum starved samples relative to the control samples.
The cells were washed and imaged live using a confocal microscope. […]

For the next series, the target named is oxidized BSA (Bos taurus, UniProt P02769). As to the kind of experiment: Fluorescent labelling of oxidized BSA (SDS-PAGE). In kind it is biochemical. The following applies: isolated system, oxidized BSA as model carbonylated biomolecule. As to the method:
(§1) Oxidized BSA was used as a model carbonylated biomolecule and TFCH's ability to detect it in an isolated system was tested. […] Next, the compatibility of TFCH for cell-based assays was established using lung cancer (A549) cells as a model cell line. TFCH's influx and efflux were achieved readily (<5 min) (FIGS. 21D and 21E). […] Importantly, given the turn-up property of the fluorophore, it was possible to identify carbonyls in live cells in the presence of unreacted fluorophores by a one-step high content screening (HCS)-compatible assay. Low concentration of the dye (2 µM) can detect carbonyls induced by serum starvation in live cells within 30 min (FIG. 22C). This single-step (no wash) assay format may be particularly suitable for screening molecules that have a propensity to induce cell detachment. Alternatively, excess fluorophore can be removed and the cells can be either imaged live (FIGS. 21D and 21E) or can be fixed and preserved for analysis at a later time Indeed, a similar spatial distribution and increase in carbonylation due to serum starvation was detected in both live (FIGS. 5, 19B) and fixed cells (fixed after fluorescent labeling in live cells). […] See also, (Vemula, Ni, & Fedorova, 2015).
(§2) FIGS. 21A-21B, Limit of detection (LOD) of TFCZ (hydrazone of TFCH and propanal) in A549 cell lysate. […] Emission spectra of the lysates were recorded by exciting the samples at 372 nm.

A short description of series [2]: Photochemical comparison of TFCH with BzCH. It is filed as physicochemical.
The nature of series [3]: Reaction of TFCH with biomolecule ketones, cell-free systems versus living cells. From the text: It is believed that, in vivo, small molecules such as amino acids are involved in catalysis of the reaction.
Another series has as its system lung cancer (A549) cells. As to the kind of experiment: Cellular influx and efflux of TFCH in live A549 cells. It is filed as cell-based. The protocol: as §1, §2
A short description of series [4]: Fluorescence quantum yield. In kind it is physicochemical. The following applies: in water; 'believed to have'. From the text:
The fluorescence “quantum yield” (φ) is the ratio of the number of photons emitted to the number absorbed. The term fluorescence quantum yield (φ) is a measure of the efficiency of photon emission through fluorescence, which is the loss of energy by a substance that has absorbed light via emission of a photon. In other words, the fluorescence quantum yield gives the probability of the excited state being deactivated by fluorescence rather than by another, non-radiative mechanism such as internal conversion or vibrational relaxation (non-radiative loss of energy as heat to the surroundings). The fluorescence intensity (F) is proportional to the amount of light absorbed, F=φ(Io-I), where lo is the intensity of the incident light and l is the intensity transmitted. […] When the concentration of the fluorescent compound is low, the fluorescence intensity is given by the equation: […].
TFCH is believed to have a quantum yield of >0.1 in water. […] “Solvent effect on absolute fluorescence quantum yield of rhodamine 6G determined using transient thermal lens technique.” Modern physics letters B 13, no. […] “Fluorescence lifetime of acridine in water-organic solvent mixtures.” Bulletin of the Chemical Society of Japan 42, no. […]

Molecules are shown by their SMILES.

oxidized BSA, sequence (P02769 25-607): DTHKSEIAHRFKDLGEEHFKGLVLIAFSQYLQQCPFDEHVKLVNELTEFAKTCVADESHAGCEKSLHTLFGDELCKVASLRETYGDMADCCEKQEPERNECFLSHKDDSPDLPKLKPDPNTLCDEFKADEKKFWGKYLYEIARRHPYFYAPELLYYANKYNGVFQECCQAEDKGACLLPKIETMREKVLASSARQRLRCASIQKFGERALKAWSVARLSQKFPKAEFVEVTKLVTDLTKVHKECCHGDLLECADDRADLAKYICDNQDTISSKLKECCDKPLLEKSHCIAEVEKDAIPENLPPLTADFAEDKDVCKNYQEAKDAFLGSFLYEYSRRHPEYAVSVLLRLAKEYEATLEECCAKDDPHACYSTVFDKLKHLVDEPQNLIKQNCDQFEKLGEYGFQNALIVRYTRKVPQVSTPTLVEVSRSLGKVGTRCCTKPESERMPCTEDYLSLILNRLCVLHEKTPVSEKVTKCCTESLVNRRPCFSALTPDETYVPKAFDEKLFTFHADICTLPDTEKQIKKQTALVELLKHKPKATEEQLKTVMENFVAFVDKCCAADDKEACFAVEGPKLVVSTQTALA

Turning to `Cc1cc(C)n2c1C=C1C=CC(CCC(=O)NN)=[N+]1[B-]2(F)F` [BODIPYH], in series [1], the “Hydrazide + propanal Abs max” value is 503 nm, the “Hydrazide + propanal Em max” value is listed as 510 nm, the “Hydrazide Abs max” value turned out to be 503 nm and the “Hydrazide Em max” value is recorded as 510 nm. Further, the “suitability as optical probe for carbonylation in live cells” value (“suitability as optical probe” below) in the series on A549 cells is reported as “found suitable as optical probes for carbonylation in live cells”.

Turning to `CCN(CC)c1ccc2cc(C(=O)NN)c(=O)oc2c1` [DCCH, 7-(diethylamino)coumarin-3-carbohydrazide], in series [1], the “Hydrazide + propanal Abs max” value was determined as 439 nm, the “Hydrazide + propanal Em max” value is reported as 481 nm, the “Hydrazide Abs max” value was 429 nm and the “Hydrazide Em max” value came to 479 nm. Besides, the “suitability as optical probe” value in the series on A549 cells is “found suitable as optical probes for carbonylation in live cells”.

Regarding `NNc1ccc2c(C(F)(F)F)cc(=O)oc2c1` [TFCH, 4-Trifluoromethyl-7-hydrazinyl-2H-chromen-2-one], the “labelling of oxidized BSA” value on oxidized BSA is “able to fluorescently label oxidized BSA and form a stable conjugate”. In series [2], the “photostability compared with BzCH” value is “more photostable than BzCH”. Further, the “absorption at 405 nm compared with BzCH” value in series [2] (405 nm) was “higher absorption at 405 nm than the BzCH”. Besides, in series [3], the “reaction with biomolecule ketones in cell-free systems relative to living cells” value is reported as “eight hundred times slower”. In addition, the “influx and efflux time” value in the series with lung cancer (A549) cells was less than 5 min. Also, the quantum yield in series [4] is given as greater than 0.1.

Take `NNS(=O)(=O)c1ccc(C2=c3cc4c5c(c3Oc3c2cc2c6c3CCCN6CCC2)CCC[N+]=5CCC4)c(S(=O)(=O)[O-])c1` [TxRH]: in series [1], the “Hydrazide + propanal Abs max” value turned out to be 589 nm, the “Hydrazide + propanal Em max” value was 607 nm, the “Hydrazide Abs max” value was 589 nm and the “Hydrazide Em max” value was found to be 607 nm. In addition, the “suitability as optical probe” value in the series with A549 cells was “found suitable as optical probes for carbonylation in live cells”.
